According to patent US10889565B2, “4-hydroxy-3-sulfonylpyridin-2(1H)-ones as APJ receptor agonists” (BRISTOL-MYERS SQUIBB COMPANY, priority 2016, dated 2021):

These compounds were tested against T1, human APJ receptor (Homo sapiens, UniProt P35414) (assay: Intracellular cAMP accumulation assay (APJ hcAMP, HTRF)). Details: HEK293 cells stably expressing human APJ receptor; inhibition of forskolin-mediated cAMP production; read-out: Human APJ cAMP EC50 Potency range.
T1 construct: expressed in transfected cells
T1 sequence (P35414 1-380): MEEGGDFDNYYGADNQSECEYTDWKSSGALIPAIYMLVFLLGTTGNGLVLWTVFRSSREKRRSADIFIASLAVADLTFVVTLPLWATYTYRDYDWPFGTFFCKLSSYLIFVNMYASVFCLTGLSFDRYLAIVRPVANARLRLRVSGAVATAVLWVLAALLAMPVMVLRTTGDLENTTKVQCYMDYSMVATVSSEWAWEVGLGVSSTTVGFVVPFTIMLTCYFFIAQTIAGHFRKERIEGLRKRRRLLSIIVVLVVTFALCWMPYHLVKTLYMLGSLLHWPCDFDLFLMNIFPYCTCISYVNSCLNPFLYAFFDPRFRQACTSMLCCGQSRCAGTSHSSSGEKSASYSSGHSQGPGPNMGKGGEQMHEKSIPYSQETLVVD
Assay type: cell-based
Procedure: Intracellular cAMP Accumulation Assay
HEK293 cells stably expressing human APJ receptor were used to assess the activity of compounds. Cultured cells were detached and resuspended in the cAMP Homogeneous Time-Resolved Fluorescence (HTRF) assay buffer (Cisbio cat; #62AM4PEJ). The assay was performed in 384-well assay plates (Perkin-Elmer; cat #6008289) according to assay protocol provided by the manufacturer. Serial dilutions of a compound together with assay buffer containing […] IBMX and 2 μM forskolin were added to each well containing 5,000 cells and incubated for 30 minutes at room temperature. Subsequently, cAMP D2 reagent was added in the lysis buffer followed by the EuK antibody (Cisbio; cat #62AM4PEJ) and incubated for 60 min. The fluorescence emission ratio was measured using fluorometer. The intracellular cAMP concentrations (compound-stimulated inhibition of forskolin-mediated cAMP production) were calculated by extrapolation from a standard curve using known cAMP concentrations. The EC50 values were obtained by fitting the data to a sigmoidal concentration-response curve with variable slope. The maximal achievable inhibition of forskolin-induced cAMP levels (Ymax) for each compound was expressed as relative percentage of inhibition attained using pyroglutamated apelin-13 ((Pyr1)apelin-13) peptide, which was set to 100%.
The examples disclosed below were tested in the APJ in vitro assays described above and were found having human APJ cyclic AMP (hcAMP) activity. The EC50 value of each compound is presented at the end of the example description.
The biological activity of the exemplified compounds of this invention determined by the assay described above is shown at the end of each example.

Structure (SMILES) | EC50
CCCCc1[nH]c(=O)c(S(=O)(=O)c2ccc(C3CC3)cc2)c(O)c1-c1c(OC)cccc1OC [Example 7, 6-butyl-3-((4-cyclo-propylphenyl)sulfonyl)-5-(2,6-dimethoxy-phenyl)-4-hydroxy-pyridin-2(1H)-one] | 0.01 to 10 nM
CCCCc1[nH]c(=O)c(S(=O)(=O)c2ccccc2Br)c(O)c1-c1c(OC)cccc1OC [Example 15, 3-((2-bromophenyl)sulfonyl)-6-butyl-5-(2,6-dimethoxy-phenyl)-4-hydroxy-pyridin-2(1H)-one] | 10 to 100 nM
CCOCc1[nH]c(=O)c(S(=O)(=O)c2ccc(-c3ccc(F)nc3)cc2)c(O)c1-c1c(OC)cccc1OC [Example 12, 5-(2,6-dimethoxy-phenyl)-6-(ethoxymethyl)-3-((4-(6-fluoro-pyridin-3-yl)phenyl)sulfonyl)-4-hydroxy-pyridin-2(1H)-one] | 0.01 to 10 nM
CCCCc1[nH]c(=O)c(S(=O)(=O)c2ccccc2)c(O)c1-c1c(OC)cccc1OC [Example 10, 6-butyl-5-(2,6-dimethoxy-phenyl)-4-hydroxy-3-(phenyl-sulfonyl) pyridin-2(1H)-one] | 0.01 to 10 nM
CCOCc1[nH]c(=O)c(S(=O)(=O)c2ccc(Br)cc2)c(O)c1-c1c(OC)cccc1OC [Example 14, 3-((4-bromophenyl)sulfonyl)-5-(2,6-dimethoxy-phenyl)-6-(ethoxymethyl)-4-hydroxy-pyridin-2(1H)-one] | 10 to 100 nM
CCCCc1[nH]c(=O)c(S(=O)(=O)c2cccc[n+]2[O-])c(O)c1-c1c(OC)cccc1OC [Example 18, 6-butyl-5-(2,6-dimethoxy-phenyl)-4-hydroxy-3-((1-hydroxy-1l4-pyridin-2-yl)sulfonyl) pyridin-2(1H)-one] | 100 to 300 nM
CCCCc1[nH]c(=O)c(S(=O)(=O)c2ccc(-n3cc(C)ccc3=O)cc2)c(O)c1-c1c(OC)cccc1OC [Example 20, 6-butyl-5-(2,6-dimethoxy-phenyl)-4-hydroxy-3-((4-(5-methyl-2-oxopyridin-1(2H)-yl)phenyl)sulfonyl) pyridin-2(1H)-one] | 0.01 to 10 nM
CCCCc1[nH]c(=O)c(S(=O)(=O)c2ccc(-c3cncc(F)c3)cc2)c(O)c1-c1c(OC)cccc1OC [Example 4, 6-butyl-5-(2,6-dimethoxy-phenyl)-3-((4-(5-fluoro-pyridin-3-yl)phenyl)sulfonyl)-4-hydroxy-pyridin-2(1H)-one] | 0.01 to 10 nM
CCOCc1[nH]c(=O)c(S(=O)(=O)c2ccc(C3CC3)cc2)c(O)c1-c1c(OC)cccc1OC [Example 11, 3-((4-cyclo-propylphenyl)sulfonyl)-5-(2,6-dimethoxy-phenyl)-6-(ethoxymethyl)-4-hydroxy-pyridin-2(1H)-one] | 0.01 to 10 nM
COc1cccc(OC)c1-c1c(-c2ccc(F)cc2)[nH]c(=O)c(S(=O)(=O)c2ccc(-c3ccc(F)nc3C)cc2)c1O [Example 17, 5-(2,6-dimethoxy-phenyl)-3-((4-(6-fluoro-2-methyl-pyridin-3-yl)phenyl)sulfonyl)-6-(4-fluoro-phenyl)-4-hydroxy-pyridin-2(1H)-one] | 0.01 to 10 nM
CCCCc1[nH]c(=O)c(S(=O)(=O)c2ccc(-n3cc(Cl)ccc3=O)cc2)c(O)c1-c1c(OC)cccc1OC [Example 19, 6-Butyl-3-((4-(5-chloro-2-oxopyridin-1 (2H)-yl)phenyl)sulfonyl)-5-(2,6-dimethoxyphenyl)-4-hydroxypyridin-2(1H)-one] | 0.01 to 10 nM
CCOCc1[nH]c(=O)c(S(=O)(=O)c2ccc(-c3ccc(F)cc3)cc2)c(O)c1-c1c(OC)cccc1OC [Example 9, 5-(2,6-dimethoxy-phenyl)-6-(ethoxymethyl)-3-((4′-fluoro-[1,1′-biphenyl]-4-yl)sulfonyl)-4-hydroxypyridin-2(1H)-one] | 0.01 to 10 nM

The remaining lines, values ahead:

EC50 | Structure (SMILES)
10 to 100 nM | CCOCc1[nH]c(=O)c(S(=O)(=O)c2ccc(-n3cc(Cl)cc(Cl)c3=O)cc2)c(O)c1-c1c(OC)cccc1OC [Example 25, 3-((4-(3,5-dichloro-2-oxopyridin-1(2H)-yl)phenyl)sulfonyl)-5-(2,6-dimethoxy-phenyl)-6-(ethoxymethyl)-4-hydroxy-pyridin-2(1H)-one]
0.01 to 10 nM | CCCCc1[nH]c(=O)c(S(=O)(=O)c2ccc(C(C)C)cn2)c(O)c1-c1c(OC)cccc1OC [Example 50, 6-Butyl-5-(2,6-dimethoxyphenyl)-4-hydroxy-3-((5-isopropylpyridin-2-yl)sulfonyl)pyridin-2(1H)-one]
0.01 to 10 nM | CCCCc1[nH]c(=O)c(S(=O)(=O)c2ccc(-c3ccccc3C)cn2)c(O)c1-c1c(OC)cccc1OC [Example 37, 6-butyl-5-(2,6-dimethoxy-phenyl)-4-hydroxy-3-((5-(o-tolyl)pyridin-2-yl)sulfonyl) pyridin-2(1H)-one]
0.01 to 10 nM | CCCCc1[nH]c(=O)c(S(=O)(=O)c2ccc(-c3ccc(F)cc3)cn2)c(O)c1-c1c(OC)cccc1OC [Example 43, 6-butyl-5-(2,6-dimethoxy-phenyl)-3-((5-(4-fluorophenyl)pyridin-2-yl)sulfonyl)-4-hydroxypyridin-2(1H)-one]
0.01 to 10 nM | CCCCc1[nH]c(=O)c(S(=O)(=O)c2ccc(-c3ccc(F)nc3)cn2)c(O)c1-c1c(OC)cccc1OC [Example 42, 6-butyl-5-(2,6-dimethoxy-phenyl)-3-((6′-fluoro-[3,3′-bipyridin]-6-yl)sulfonyl)-4-hydroxypyridin-2(1H)-one]
0.01 to 10 nM | CCCCc1[nH]c(=O)c(S(=O)(=O)c2ccc(-c3ccnc4[nH]ccc34)cn2)c(O)c1-c1c(OC)cccc1OC [Example 47, 3-((5-(1H-pyrrolo[2,3-b]pyridin-4-yl)pyridin-2-yl)sulfonyl)-6-butyl-5-(2,6-dimethoxy-phenyl)-4-hydroxy-pyridin-2(1H)-one]
0.01 to 10 nM | CCCCc1[nH]c(=O)c(S(=O)(=O)c2ccc(-n3ccccc3=O)cc2)c(O)c1-c1c(OC)cccc1OC [Example 22, 6-butyl-5-(2,6-dimethoxy-phenyl)-4-hydroxy-3-((4-(2-oxopyridin-1(2H)-yl)phenyl)sulfonyl) pyridin-2(1H)-one]
0.01 to 10 nM | CCCCc1[nH]c(=O)c(S(=O)(=O)c2ccc(NC(=O)Nc3ccc(F)cc3)cc2)c(O)c1-c1c(OC)cccc1OC [Example 31, 1-(4-((6-butyl-5-(2,6-dimethoxyphenyl)-4-hydroxy-2-oxo-1,2-dihydropyridin-3-yl)sulfonyl)phenyl)-3-(4-fluorophenyl)urea]
0.01 to 10 nM | CCOCc1[nH]c(=O)c(S(=O)(=O)c2ccc(-n3cc(C)ccc3=O)cc2)c(O)c1-c1c(OC)cccc1OC [Example 24, 5-(2,6-dimethoxy-phenyl)-6-(ethoxymethyl)-4-hydroxy-3-((4-(5-methyl-2-oxopyridin-1(2H)-yl)phenyl)sulfonyl) pyridin-2(1H)-one]
0.01 to 10 nM | C=C(C)c1ccc(S(=O)(=O)c2c(O)c(-c3c(OC)cccc3OC)c(CCCC)[nH]c2=O)nc1 [Example 49, 6-Butyl-5-(2,6-dimethoxyphenyl)-4-hydroxy-3-((5-(prop-1-en-2-yl)pyridin-2-yl)sulfonyl)pyridin-2(1H)-one]
0.01 to 10 nM | CCCCc1[nH]c(=O)c(S(=O)(=O)c2ccc(-c3ccncc3C)cn2)c(O)c1-c1c(OC)cccc1OC [Example 34, 6-butyl-5-(2,6-dimethoxy-phenyl)-4-hydroxy-3-((3′-methyl-[3,4′-bipyridin]-6-yl)sulfonyl) pyridin-2(1H)-one]
0.01 to 10 nM | CCCCc1[nH]c(=O)c(S(=O)(=O)c2ccc(Nc3ccc(F)cc3)cc2)c(O)c1-c1c(OC)cccc1OC [Example 29, 6-butyl-5-(2,6-dimethoxyphenyl)-3-((4-((4-fluorophenyl)amino)phenyl)sulfonyl)-4-hydroxypyridin-2(1H)-one]
0.01 to 10 nM | CCCCc1[nH]c(=O)c(S(=O)(=O)c2ccc(NC(=O)c3ccc(F)cc3)cc2)c(O)c1-c1c(OC)cccc1OC [Example 30, N-(4-((6-butyl-5-(2,6-dimethoxyphenyl)-4-hydroxy-2-oxo-1,2-dihydropyridin-3-yl)sulfonyl)phenyl)-4-fluorobenzamide]
0.01 to 10 nM | CCCCc1[nH]c(=O)c(S(=O)(=O)c2ccc(-c3ccnc(N4CCOCC4)c3F)cn2)c(O)c1-c1c(OC)cccc1OC [Example 40, 6-butyl-5-(2,6-dimethoxy-phenyl)-3-((3′-fluoro-2′-morpholino-[3,4′-bipyridin]-6-yl)sulfonyl)-4-hydroxypyridin-2(1H)-one]
0.01 to 10 nM | CCCCc1[nH]c(=O)c(S(=O)(=O)c2ccc(N)cc2)c(O)c1-c1c(OC)cccc1OC [Example 27, 3-((4-aminophenyl)sulfonyl)-6-butyl-5-(2,6-dimethoxyphenyl)-4-hydroxypyridin-2(1H)-one]
